Results reported in PubChem BioAssay AID1963432 (Molecular Pharmacology Branch, DTP, NCI, 2024).

Test system: SYO-1 complex spheroid growth, percent test/control
Assay: Anticancer human tumor SYO-1 cell line growth inhibition [Asc];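 note: compound exposure lasted 7 days after spheroids grew 3 days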;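 for viability, T/C: 100% = DMSO vehicle control viability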
Settings: for IC50: curve of first compound; for viability, T/C: stronger effect = lower value
Procedure, shortened: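 Tumor cells were grown as complex spheroids with human endothelial cells (HUVEC) and human mesenchymal stem cells as stroma. Agents were tested alone and in combination, in half-log steps down from the clinical Cmax, or from 10 microM where Cmax was unknown.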

[1] = second compound 0.0316 µM, first compound 0.0316 µM
[2] = second compound 0.0316 µM, first compound 0.1 µM
[3] = second compound 0.0316 µM, first compound 0.316 µM
[4] = second compound 0.0316 µM, first compound 1 µM
[5] = second compound 0.0316 µM, first compound 3.16 µM
[6] = second compound 0.0316 µM, first compound 10 µM
[7] = second compound 0.1 µM, first compound 0.0316 µM
[8] = second compound 0.1 µM, first compound 0.1 µM
[9] = second compound 0.1 µM, first compound 0.316 µM
[10] = second compound 0.1 µM, first compound 1 µM
[11] = second compound 0.1 µM, first compound 3.16 µM
[12] = second compound 0.1 µM, first compound 10 µM
[13] = second compound 0.316 µM, first compound 0.0316 µM
[14] = second compound 0.316 µM, first compound 0.1 µM
[15] = second compound 0.316 µM, first compound 0.316 µM
[16] = second compound 0.316 µM, first compound 1 µM
[17] = second compound 0.316 µM, first compound 3.16 µM
[18] = second compound 0.316 µM, first compound 10 µM
[19] = second compound 1 µM, first compound 0.0316 µM
[20] = second compound 1 µM, first compound 0.1 µM
[21] = second compound 1 µM, first compound 0.316 µM
[22] = second compound 1 µM, first compound 1 µM
[23] = second compound 1 µM, first compound 3.16 µM
[24] = second compound 1 µM, first compound 10 µM
[25] = second compound 3.16 µM, first compound 0.0316 µM
[26] = second compound 3.16 µM, first compound 0.1 µM
[27] = second compound 3.16 µM, first compound 0.316 µM
[28] = second compound 3.16 µM, first compound 1 µM
[29] = second compound 3.16 µM, first compound 3.16 µM
[30] = second compound 3.16 µM, first compound 10 µM
[31] = second compound 10 µM, first compound 0.0316 µM
[32] = second compound 10 µM, first compound 0.1 µM
[33] = second compound 10 µM, first compound 0.316 µM
[34] = second compound 10 µM, first compound 1 µM
[35] = second compound 10 µM, first compound 3.16 µM
[36] = second compound 10 µM, first compound 10 µM

C=C(F)C(=O)N1CCN(c2nc(OCC3CCCN3C)nc3c2CCN(c2cccc4cccc(Cl)c24)C3)CC1CC#N (stereo unspecified) + Cc1c(S(C)(=O)=O)c(-c2cc(F)cc(N3CCN(c4ccc(NS(=O)(=O)c5ccc(NC(CCN6CCC(C(=O)OCCCP(=O)(O)O)CC6)CSc6ccccc6)c(S(=O)(=O)C(F)(F)F)c5)cc4)CC3)c2)c(-c2ccc(Cl)cc2)n1C(C)C
IC50 (second compound 0.0316 µM): 4950 nM
IC50 (second compound 0.1 µM): 3360 nM
IC50 (second compound 0.316 µM): 1740 nM
IC50 (second compound 1 µM): 1730 nM
IC50 (second compound 3.16 µM): 1670 nM
IC50 (second compound 10 µM): 1590 nM
viability, T/C [1]: 97.2%
viability, T/C [2]: 87.6%
viability, T/C [3]: 97.8%
viability, T/C [4]: 101%
viability, T/C [5]: 81.6%
viability, T/C [6]: 0.62%
viability, T/C [7]: 92.7%
viability, T/C [8]: 96.7%
viability, T/C [9]: 96.3%
viability, T/C [10]: 98.3%
viability, T/C [11]: 52.8%
viability, T/C [12]: 0.77%
viability, T/C [13]: 98.8%
viability, T/C [14]: 97%
viability, T/C [15]: 97.3%
viability, T/C [16]: 95.1%
viability, T/C [17]: 1.32%
viability, T/C [18]: 0.42%
viability, T/C [19]: 89.6%
viability, T/C [20]: 89.7%
viability, T/C [21]: 88.4%
viability, T/C [22]: 109%
viability, T/C [23]: 0.8%
viability, T/C [24]: 1.26%
viability, T/C [25]: 92.9%
viability, T/C [26]: 78.6%
viability, T/C [27]: 87.8%
viability, T/C [28]: 97.6%
viability, T/C [29]: 0.94%
viability, T/C [30]: 1.06%
viability, T/C [31]: 89.5%
viability, T/C [32]: 78.9%
viability, T/C [33]: 71.5%
viability, T/C [34]: 91.6%
viability, T/C [35]: 0.9%
viability, T/C [36]: 0.74%

C=CC(=O)N1CCN(c2nc(=O)n(-c3c(C)ccnc3C(C)C)c3nc(-c4c(O)cccc4F)c(F)cc23)C(C)C1 (stereo unspecified) + Cc1c(S(C)(=O)=O)c(-c2cc(F)cc(N3CCN(c4ccc(NS(=O)(=O)c5ccc(NC(CCN6CCC(C(=O)OCCCP(=O)(O)O)CC6)CSc6ccccc6)c(S(=O)(=O)C(F)(F)F)c5)cc4)CC3)c2)c(-c2ccc(Cl)cc2)n1C(C)C
IC50 (second compound 0.0316 µM): > 10000 nM
IC50 (second compound 0.1 µM): > 10000 nM
IC50 (second compound 0.316 µM): > 10000 nM
IC50 (second compound 1 µM): > 10000 nM
IC50 (second compound 3.16 µM): > 10000 nM
IC50 (second compound 10 µM): > 10000 nM
viability, T/C [1]: 105%
viability, T/C [2]: 100%
viability, T/C [3]: 100%
viability, T/C [4]: 106%
viability, T/C [5]: 103%
viability, T/C [6]: 90.7%
viability, T/C [7]: 114%
viability, T/C [8]: 103%
viability, T/C [9]: 93.4%
viability, T/C [10]: 99.9%
viability, T/C [11]: 99.7%
viability, T/C [12]: 87%
viability, T/C [13]: 98.3%
viability, T/C [14]: 96.9%
viability, T/C [15]: 101%
viability, T/C [16]: 102%
viability, T/C [17]: 88.3%
viability, T/C [18]: 83.4%
viability, T/C [19]: 94.4%
viability, T/C [20]: 94%
viability, T/C [21]: 99.2%
viability, T/C [22]: 100%
viability, T/C [23]: 90.7%
viability, T/C [24]: 83.6%
viability, T/C [25]: 91.5%
viability, T/C [26]: 86.5%
viability, T/C [27]: 93.2%
viability, T/C [28]: 96.5%
viability, T/C [29]: 87.9%
viability, T/C [30]: 81%
viability, T/C [31]: 90%
viability, T/C [32]: 81.4%
viability, T/C [33]: 83.9%
viability, T/C [34]: 79.5%
viability, T/C [35]: 89.9%
viability, T/C [36]: 76.1%

CCN1C(C(=O)NC23CCC(C(=O)O)(CC2)CC3)C(c2cccc(Cl)c2F)C2(C(=O)Nc3cc(Cl)ccc32)C12CCCCC2 (stereo unspecified) + Cc1c(S(C)(=O)=O)c(-c2cc(F)cc(N3CCN(c4ccc(NS(=O)(=O)c5ccc(NC(CCN6CCC(C(=O)OCCCP(=O)(O)O)CC6)CSc6ccccc6)c(S(=O)(=O)C(F)(F)F)c5)cc4)CC3)c2)c(-c2ccc(Cl)cc2)n1C(C)C
IC50 (second compound 0.0316 µM): 131 nM
IC50 (second compound 0.1 µM): 127 nM
IC50 (second compound 0.316 µM): 90.6 nM
IC50 (second compound 1 µM): 64.8 nM
IC50 (second compound 3.16 µM): 44.3 nM
IC50 (second compound 10 µM): 35.7 nM
viability, T/C (second compound 0.0316 µM, first compound 0.00949 µM): 97.6%
viability, T/C (second compound 0.0316 µM, first compound 0.03 µM): 88.5%
viability, T/C (second compound 0.0316 µM, first compound 0.0949 µM): 65%
viability, T/C (second compound 0.0316 µM, first compound 0.3 µM): 13.6%
viability, T/C (second compound 0.0316 µM, first compound 0.949 µM): 2.07%
viability, T/C (second compound 0.0316 µM, first compound 3 µM): 0.87%
viability, T/C (second compound 0.1 µM, first compound 0.00949 µM): 91.7%
viability, T/C (second compound 0.1 µM, first compound 0.03 µM): 80.9%
viability, T/C (second compound 0.1 µM, first compound 0.0949 µM): 64.2%
viability, T/C (second compound 0.1 µM, first compound 0.3 µM): 10.4%
viability, T/C (second compound 0.1 µM, first compound 0.949 µM): 1.25%
viability, T/C (second compound 0.1 µM, first compound 3 µM): 0.54%
viability, T/C (second compound 0.316 µM, first compound 0.00949 µM): 86.6%
viability, T/C (second compound 0.316 µM, first compound 0.03 µM): 78.7%
viability, T/C (second compound 0.316 µM, first compound 0.0949 µM): 49.5%
viability, T/C (second compound 0.316 µM, first compound 0.3 µM): 4.49%
viability, T/C (second compound 0.316 µM, first compound 0.949 µM): 0.85%
viability, T/C (second compound 0.316 µM, first compound 3 µM): 0.62%
viability, T/C (second compound 1 µM, first compound 0.00949 µM): 87.4%
viability, T/C (second compound 1 µM, first compound 0.03 µM): 77.6%
viability, T/C (second compound 1 µM, first compound 0.0949 µM): 36.4%
viability, T/C (second compound 1 µM, first compound 0.3 µM): 4.69%
viability, T/C (second compound 1 µM, first compound 0.949 µM): 0.8%
viability, T/C (second compound 1 µM, first compound 3 µM): 0.39%
viability, T/C (second compound 3.16 µM, first compound 0.00949 µM): 77.5%
viability, T/C (second compound 3.16 µM, first compound 0.03 µM): 63.4%
viability, T/C (second compound 3.16 µM, first compound 0.0949 µM): 23.8%
viability, T/C (second compound 3.16 µM, first compound 0.3 µM): 2.4%
viability, T/C (second compound 3.16 µM, first compound 0.949 µM): 0.61%
viability, T/C (second compound 3.16 µM, first compound 3 µM): 0.43%
viability, T/C (second compound 10 µM, first compound 0.00949 µM): 75.9%
viability, T/C (second compound 10 µM, first compound 0.03 µM): 56.7%
viability, T/C (second compound 10 µM, first compound 0.0949 µM): 12.4%
viability, T/C (second compound 10 µM, first compound 0.3 µM): 2.09%
viability, T/C (second compound 10 µM, first compound 0.949 µM): 0.69%
viability, T/C (second compound 10 µM, first compound 3 µM): 0.46%
